Assay results reported in patent US20050203011A1, “Mitigating symptoms and behaviors of substance abuse by modulating GDNF or BDNF pathway activity” (The Regents of the University of California, priority 2003, published 2005).

Columns and labels:
GDNF [1] = assay: GDNF expression in SHSY5Y cells (RT-PCR); type: cell-based, human
Procedure: SHSY5Y human neuroblastoma cells were grown in Dulbecco's modified Eagle's medium (DMEM) containing 10% fetal bovine serum (FBS) plus 100 units/ml penicillin and 100 μg/ml streptomycin. Prior to experiments, the medium was replaced with DMEM containing 1% FBS.
Total RNA was isolated using Trizol reagent and reverse transcribed using Reverse Transcription System kit with the oligo (dT)15 primer at 42ûC for 30 minutes. GDNF, Actin or GPDH expressions were analyzed by RT-PCR. The GDNF primers were based on the coding frame of the human GDNF gene: upstream, 5′-TGCCAGAGGATTATCCTGATCAGTTCG ATG3′ (SEQ ID NO: 1); and downstream, 5′-TTGTCGTACGTTGTCTCAGCTGCATCGCAA-3′ (SEQ ID NO:2). The Actin primers were based on the human Actin gene: upstream, 5′-TCATGAAGTGTGACGTTGACATC-3′ (SEQ ID NO:3); and downstream, 5′-AGAAGCATTTGCGGTGGACGATG-3′ (SEQ ID NO:4). The GPDH primers were based on the rat GPDH gene: upstream, 5′-TGAAGGTCGGTGTCAACGGATTTGGC-3′ (SEQ ID NO:5); and downstream, 5′-CATGTAGGCCATGAGGTCCACCAC-3′ (SEQ ID NO:6). […]
After completion of PCR, 10 μl of each product was separated by 1.8% agarose gel in Tris/acetic acid/EDTA buffer with 0.25N^og/ml ethidium bromide, photographed by Eagle Eye II (Stratagene), and quantified by NIH Image 1.61.

GDNF [2] = assay: GDNF expression in the midbrain after i.p. ibogaine (RT-PCR), rats; type: in vivo, rat; conditions: 40 mg/kg i.p., 1, 6 or 12 h post injection
Procedure: (§1) Total RNA was isolated using Trizol reagent and reverse transcribed using Reverse Transcription System kit with the oligo (dT)15 primer at 42ûC for 30 minutes. GDNF, Actin or GPDH expressions were analyzed by RT-PCR. The GDNF primers were based on the coding frame of the human GDNF gene: upstream, 5′-TGCCAGAGGATTATCCTGATCAGTTCG ATG3′ (SEQ ID NO: 1); and downstream, 5′-TTGTCGTACGTTGTCTCAGCTGCATCGCAA-3′ (SEQ ID NO:2). The Actin primers were based on the human Actin gene: upstream, 5′-TCATGAAGTGTGACGTTGACATC-3′ (SEQ ID NO:3); and downstream, 5′-AGAAGCATTTGCGGTGGACGATG-3′ (SEQ ID NO:4). The GPDH primers were based on the rat GPDH gene: upstream, 5′-TGAAGGTCGGTGTCAACGGATTTGGC-3′ (SEQ ID NO:5); and downstream, 5′-CATGTAGGCCATGAGGTCCACCAC-3′ (SEQ ID NO:6). PCR conditions were optimized to specifically ensure that the amplification reactions are within the linear range by testing a range of 25-40 PCR cycles. The optimal numbers of cycles used were: 30 cycles for controls GPDH and actin and 35 cycles for GDNF.
(§2) Male C57B16 mice or Long Evans rats were habituated with 3 saline injections over 3 days followed by i.p. administration of 40 mg/kg ibogaine-HCl. The animals were sacrificed 1, 6 or 12 hours post injection, and brain regions were excised and stored at −80° C. until use for analysis of GDNF expression by RT-PCR.

Trk = Trk phosphorylation in SHSY5Y cells; type: cell-based, human; conditions: 10 μM ibogaine 3 hours
Procedure: (§3) Expression of GDNF and control Actin were analyzed by RT-PCR (n=4). […] GDNF in the media was detected by an ELISA assay. Histogram depicts the mean±SD of GDNF secretion in 3 experiments. […] Ret was immunoprecipitated with anti-Ret antibodies followed by Western blot analysis with anti GFRα1 antibodies. The levels of GFRα1 in the homogenates were determined by Western blot analysis (n=3). […] Ret was immunoprecipitated followed by Western blot analysis with anti-phospho tyrosine or anti-Ret antibodies (n=3). […] Trk phosphorylation was analyzed by Western blot analysis with anti-phospho-Trk antibodies. The levels of TrkB were also determined by Western blot analysis (n=3). Panel F: Cells were pre-incubated with 0.3 unit/ml PI-PLC for 1 h (lanes 3 and 4). […] Ret phosphorylation was determined as described above (n=4). […] Treatment with 50 ng/ml GDNF was used as a positive control (lane 5). The cells were lysed and Ret phosphorylation was analyzed as described above (n=3).

GDNF [3] = assay: GDNF expression in the midbrain after i.p. ibogaine (RT-PCR), mice; type: in vivo, mouse; conditions: 40 mg/kg i.p., 1, 6 or 12 h post injection
Procedure: as §1, §2

Ret = Ret phosphorylation in SHSY5Y cells; type: cell-based, human; conditions: dose- and time-dependent
Procedure: as §3
Cells were collected and lysed in RIPA buffer (50 mM Tris-Cl, pH 7.6, 150 mM NaCl, 1 % NP40, 0.1% SDS, 0.5% sodium deoxycholate, 2 mM EDTA, protease inhibitor cocktail and 10 mM sodium orthovanadate). Homogenates were incubated with 5 N^og anti-Ret antibody in TBS-T buffer (20 mM Tris-Cl, pH7.6, 137 mM NaCl and 1% NP-40) overnight at 4° C., followed by 2 hours incubation with Protein G agarose. […]

## 12-methoxyibogamine [ibogaine]
GDNF [1]
  duration of increase in GDNF expression: up to 12 hours
GDNF [1]; 10 μM, dose- and time-dependent
  GDNF expression: increase
GDNF [2]
  expression of GDNF in the midbrain: increase
Trk
  phosphorylation state of Trk: no change
GDNF [3]
  expression of GDNF in the midbrain: increase
Ret
  Ret phosphorylation: induced
